The source of these data is ChEMBL document CHEMBL1140785, “Synthesis, biological evaluation and molecular modelling studies of novel ACD- and ABD-ring steroidomimetics as inhibitors of CYP17” (Bioorg Med Chem Lett, 2008).

Series [1] addresses T1, Steroid 17-alpha-hydroxylase/17,20 lyase (Homo sapiens, UniProt P05093).
T1 sequence (P05093 whole entry): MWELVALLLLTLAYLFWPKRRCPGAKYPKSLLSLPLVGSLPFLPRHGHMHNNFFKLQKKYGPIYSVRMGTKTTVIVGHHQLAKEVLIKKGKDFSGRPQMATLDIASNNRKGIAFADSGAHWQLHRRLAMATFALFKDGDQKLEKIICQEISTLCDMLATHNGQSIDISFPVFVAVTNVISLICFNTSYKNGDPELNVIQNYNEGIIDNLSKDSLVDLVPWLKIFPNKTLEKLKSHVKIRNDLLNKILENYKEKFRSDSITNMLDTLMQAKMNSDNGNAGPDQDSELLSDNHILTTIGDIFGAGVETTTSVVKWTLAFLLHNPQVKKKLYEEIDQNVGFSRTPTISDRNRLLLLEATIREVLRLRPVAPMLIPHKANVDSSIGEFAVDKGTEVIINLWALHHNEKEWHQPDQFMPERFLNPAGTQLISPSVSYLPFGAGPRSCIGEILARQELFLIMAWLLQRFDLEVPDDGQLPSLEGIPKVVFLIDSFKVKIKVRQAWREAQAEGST
Nature of the series: Inhibition of human CYP17 expressed in Escherichia coli at 2 uM.

Series [2] deals with T1, Steroid 17-alpha-hydroxylase/17,20 lyase. Nature of the series: Inhibition of human CYP17 expressed in Escherichia coli at 0.2 uM.
The target in series [3] is T2, CYP3A4 (Homo sapiens, UniProt P08684). Nature of the series: Inhibition of hepatic CYP3A4 at 10 uM. The class given is ADME.
The target in series [4] is T3, CYP2C19 (Homo sapiens, UniProt P33261). Nature of the series: Inhibition of hepatic CYP2C19 at 10 uM. It counts as ADME.
In series [5] the target is T4, CYP1A2 (Homo sapiens, UniProt P05177).
T4 sequence (P05177 whole entry): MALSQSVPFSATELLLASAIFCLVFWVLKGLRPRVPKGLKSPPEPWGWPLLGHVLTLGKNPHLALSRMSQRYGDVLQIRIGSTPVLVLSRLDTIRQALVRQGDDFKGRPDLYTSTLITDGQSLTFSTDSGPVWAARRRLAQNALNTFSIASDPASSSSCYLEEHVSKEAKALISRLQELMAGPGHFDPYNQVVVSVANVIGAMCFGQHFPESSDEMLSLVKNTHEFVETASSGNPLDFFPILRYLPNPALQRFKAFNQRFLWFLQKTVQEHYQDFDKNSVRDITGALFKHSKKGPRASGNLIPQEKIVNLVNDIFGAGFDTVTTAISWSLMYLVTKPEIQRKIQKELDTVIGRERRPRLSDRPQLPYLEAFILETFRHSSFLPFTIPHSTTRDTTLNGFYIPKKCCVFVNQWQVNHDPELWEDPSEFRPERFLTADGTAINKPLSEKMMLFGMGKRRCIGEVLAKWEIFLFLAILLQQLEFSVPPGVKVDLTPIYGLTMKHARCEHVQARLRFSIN
Put plainly: Inhibition of hepatic CYP1A2 at 10 uM. The class given is ADME.

The target of series [6] is T5, CYP2C9 (Homo sapiens, UniProt P11712). Put plainly: Inhibition of hepatic CYP2C9 at 10 uM. It counts as ADME.
The target of series [7] is T5, CYP2C9. Nature of the series: Inhibition of hepatic CYP2C9 at 1 uM. It counts as ADME.
The target in series [8] is T4, CYP1A2. Nature of the series: Inhibition of hepatic CYP1A2 at 1 uM. It counts as ADME.
Series [9] concerns the target T3, CYP2C19. Put plainly: Inhibition of hepatic CYP2C19 at 1 uM. The class given is ADME.
In series [10] the target is T2, CYP3A4. Nature of the series: Inhibition of hepatic CYP3A4 at 1 uM. The class given is ADME.
Series [11] has as its target T6, CYP2D6 (Homo sapiens, UniProt P10635). Nature of the series: Inhibition of CYP2D6 at 1 uM. The class given is ADME.
The target in series [12] is T2, CYP3A4. Nature of the series: Inhibition of hepatic recombinant CYP3A4 at 10 uM. The class given is ADME.
Series [13] deals with T6, CYP2D6. Put plainly: Inhibition of CYP2D6 at 10 uM. The class given is ADME.
Series [14] concerns the target T7, CYP11B1 (Homo sapiens, UniProt P15538).
T7 sequence (P15538 whole entry): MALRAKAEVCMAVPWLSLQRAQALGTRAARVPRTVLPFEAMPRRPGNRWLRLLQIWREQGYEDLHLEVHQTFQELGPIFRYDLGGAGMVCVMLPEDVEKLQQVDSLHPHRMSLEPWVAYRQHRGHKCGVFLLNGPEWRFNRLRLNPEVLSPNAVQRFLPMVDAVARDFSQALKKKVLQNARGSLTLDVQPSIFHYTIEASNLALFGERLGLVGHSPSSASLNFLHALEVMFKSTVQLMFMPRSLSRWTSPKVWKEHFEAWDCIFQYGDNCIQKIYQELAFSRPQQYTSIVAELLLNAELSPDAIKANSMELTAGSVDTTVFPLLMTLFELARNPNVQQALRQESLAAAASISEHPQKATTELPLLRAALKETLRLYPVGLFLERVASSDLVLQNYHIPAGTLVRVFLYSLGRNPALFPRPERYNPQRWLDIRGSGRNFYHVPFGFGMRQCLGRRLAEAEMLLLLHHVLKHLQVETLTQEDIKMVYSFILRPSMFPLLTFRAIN
Put plainly: Inhibition of human CYP11B1 expressed in V79Zh11B1 cells at 2 uM. The class given is cell-based. The settings on record: V79Zh11B1 cells expressing human CYP11B1.

In series [15] the target is T7, CYP11B1. Put plainly: Inhibition of human CYP11B1 expressed in V79Zh11B1 cells at 0.2 uM. The class given is cell-based, V79. The conditions noted are these: V79Zh11B1 cells expressing human CYP11B1.
Series [16] addresses T1, Steroid 17-alpha-hydroxylase/17,20 lyase. Put plainly: Inhibition of human CYP17 expressed in Escherichia coli.

T3 sequence (P33261 whole entry): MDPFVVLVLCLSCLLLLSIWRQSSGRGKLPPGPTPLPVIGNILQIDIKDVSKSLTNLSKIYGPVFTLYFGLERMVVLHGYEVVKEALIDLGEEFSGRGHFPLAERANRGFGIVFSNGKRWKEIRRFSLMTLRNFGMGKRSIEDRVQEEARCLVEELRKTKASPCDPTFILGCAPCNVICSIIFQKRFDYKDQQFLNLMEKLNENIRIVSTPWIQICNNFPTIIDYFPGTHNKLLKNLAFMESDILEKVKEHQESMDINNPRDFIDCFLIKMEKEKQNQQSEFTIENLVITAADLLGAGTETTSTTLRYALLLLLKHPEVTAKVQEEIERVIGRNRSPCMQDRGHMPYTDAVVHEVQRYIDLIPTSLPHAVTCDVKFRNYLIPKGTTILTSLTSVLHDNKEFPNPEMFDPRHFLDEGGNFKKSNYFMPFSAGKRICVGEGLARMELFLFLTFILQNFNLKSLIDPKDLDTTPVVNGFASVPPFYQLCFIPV
T5 sequence (P11712 whole entry): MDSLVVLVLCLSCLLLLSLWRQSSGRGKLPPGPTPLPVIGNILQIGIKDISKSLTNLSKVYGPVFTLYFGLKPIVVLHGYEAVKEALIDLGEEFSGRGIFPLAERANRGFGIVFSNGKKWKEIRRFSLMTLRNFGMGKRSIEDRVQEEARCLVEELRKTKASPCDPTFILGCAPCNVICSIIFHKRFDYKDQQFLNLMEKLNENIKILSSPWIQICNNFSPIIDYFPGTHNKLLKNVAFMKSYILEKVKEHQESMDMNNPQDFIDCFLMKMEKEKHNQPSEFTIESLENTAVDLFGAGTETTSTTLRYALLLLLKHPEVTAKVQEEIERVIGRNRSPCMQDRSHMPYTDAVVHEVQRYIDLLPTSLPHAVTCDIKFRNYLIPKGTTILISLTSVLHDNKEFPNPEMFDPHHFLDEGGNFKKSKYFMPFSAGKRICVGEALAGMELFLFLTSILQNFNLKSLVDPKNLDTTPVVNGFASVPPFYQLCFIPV
T2 sequence (P08684 whole entry): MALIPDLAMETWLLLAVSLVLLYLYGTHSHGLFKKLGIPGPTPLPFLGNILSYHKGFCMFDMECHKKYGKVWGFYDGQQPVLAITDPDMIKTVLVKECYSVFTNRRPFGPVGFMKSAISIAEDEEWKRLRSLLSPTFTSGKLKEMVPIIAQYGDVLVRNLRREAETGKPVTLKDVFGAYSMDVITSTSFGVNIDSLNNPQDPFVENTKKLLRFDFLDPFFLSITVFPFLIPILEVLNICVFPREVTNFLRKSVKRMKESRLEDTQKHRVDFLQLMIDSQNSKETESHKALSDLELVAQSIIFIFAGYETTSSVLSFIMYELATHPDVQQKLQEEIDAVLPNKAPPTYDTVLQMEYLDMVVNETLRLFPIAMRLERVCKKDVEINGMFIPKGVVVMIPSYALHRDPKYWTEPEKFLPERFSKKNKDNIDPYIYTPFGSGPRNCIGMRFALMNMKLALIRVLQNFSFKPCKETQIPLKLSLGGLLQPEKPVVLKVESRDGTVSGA
T6 sequence (P10635 whole entry): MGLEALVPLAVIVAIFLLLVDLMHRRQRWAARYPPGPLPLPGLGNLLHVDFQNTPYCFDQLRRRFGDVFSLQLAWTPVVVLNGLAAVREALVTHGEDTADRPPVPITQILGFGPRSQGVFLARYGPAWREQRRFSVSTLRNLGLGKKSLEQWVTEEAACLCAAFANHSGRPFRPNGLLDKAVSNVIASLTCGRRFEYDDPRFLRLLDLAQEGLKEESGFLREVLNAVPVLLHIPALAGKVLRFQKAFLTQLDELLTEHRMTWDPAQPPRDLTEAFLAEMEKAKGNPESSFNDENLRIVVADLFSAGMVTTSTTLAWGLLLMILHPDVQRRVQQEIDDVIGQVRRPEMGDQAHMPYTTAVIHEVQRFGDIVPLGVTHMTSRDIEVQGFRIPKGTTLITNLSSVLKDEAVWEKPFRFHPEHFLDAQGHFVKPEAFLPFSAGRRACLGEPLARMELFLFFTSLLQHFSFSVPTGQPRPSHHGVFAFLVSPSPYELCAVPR

As usually defined, the inhibition is the change of the read-out against control, counted positive when it falls. `Fc1ccc(-c2ccc3c(-c4cccnc4)cccc3c2)cc1`: testing at 2 µM in series [1] gave an inhibition of 3%. The compound further returned an inhibition at 0.2 µM in series [2] of 2%.
On the same counts, the results for `Oc1ccc2cc(-c3ccc(F)cc3)ccc2c1-c1cccnc1` are 0% and 0%.
On the same counts, the results for `Fc1ccc(-c2ccc3cc(-c4cccnc4)ccc3c2)cc1` are 22% and 0%.
Take `COc1ccc2cc(-c3ccc(F)cc3)ccc2c1Cn1ccnc1`: the inhibition at 10 µM was found to be 95% against CYP3A4 [3], 96% at CYP2C19 [4], 85% against CYP1A2 [5] and 100% at CYP2C9 [6]. In [1], this compound gave an inhibition at 2 µM of 45%. Further, the inhibition at 1 µM is 100% at CYP2C9 [7], 80% against CYP1A2 [8], 93% at CYP2C19 [9] and 93% on CYP3A4 [10]. In series [2], this compound gave an inhibition at 0.2 µM of 13%.
Compound `Fc1ccc(-c2ccc3cc(Cn4ccnc4)ccc3c2)cc1` showed an inhibition at 2 µM in [1] of 14%. The same compound showed an inhibition at 0.2 µM in series [2] of 3%.
Taken in the same sequence, the figures for `Cc1cc(F)ccc1-c1ccc2c(-c3cccnc3)cccc2c1` were 3% and 3%.
On the same counts, the results for `COc1ccc2cc(-c3cccnc3)ccc2c1-c1ccc(F)cc1` are 1% and 0%.
On the same counts, the results for `COc1ccc2cc(-c3cccc(-c4ccncc4)c3)ccc2c1` are 23% and 4%.
In the case of `Oc1ccc2cc(-c3cccc(-c4cccnc4)c3)ccc2c1`, testing at 2 µM in [1] gave an inhibition of 8%. Also, the inhibition at 0.2 µM in series [2] was 0%.
On to `Oc1ccc2cc(-c3cccc(-c4ccncc4)c3)ccc2c1`, for which the inhibition at 1 µM turned out to be 80% against CYP2D6 [11]; 94% on CYP2C9 [7]; 98% against CYP1A2 [8]; 86% at CYP2C19 [9]; 6% against CYP3A4 [10]. The inhibition at 10 µM is 19% on CYP3A4 [12]; 85% at CYP2D6 [13]; 19% against CYP3A4 [3]; 89% on CYP2C19 [4]; 98% at CYP1A2 [5]; 97% against CYP2C9 [6]. In addition, the inhibition at 2 µM came out at 66% in series [1] and 23% against CYP11B1 [14]. Moreover, the inhibition at 0.2 µM in [2] came out at 31%; against CYP11B1 [15], 3%.
As for `Oc1ccc2cc(-c3ccc(Cn4ccnc4)cc3)ccc2c1`, the inhibition at 2 µM in series [1] amounted to 61%. In [2], this compound came in with an inhibition at 0.2 µM of 24%.
On the same counts, the results for `Fc1ccc(-c2cc(Cn3ccnc3)c3ccccc3c2)cc1` are 50% and 9%.
Taken in the same sequence, the figures for `COc1ccc2cc(-c3cccc(-c4cccnc4)c3)ccc2c1` were 4% and 3%.
As for `COc1ccc2cc(-c3cccc(Cn4ccnc4)c3)ccc2c1`, the inhibition at 10 µM against CYP3A4 [3] turned out to be 96%; at CYP2C19 [4] it was 97%; on CYP1A2 [5] it was 97%; on CYP2C9 [6], 100%. The compound further displayed an inhibition at 2 µM in [1] of 28%. In addition, the inhibition at 1 µM on CYP2C9 [7] was 97%; against CYP1A2 [8], 96%; against CYP2C19 [9] it was 95%; on CYP3A4 [10], 91%. For the same compound, the inhibition at 0.2 µM in series [2] amounted to 0%.
In series [1], `Fc1ccc(-c2ccc3c(-c4ccncc4)cccc3c2)cc1` yielded an inhibition at 2 µM of 28%. The inhibition at 0.2 µM in [2] was 1%.
Taken in the same sequence, the figures for `Fc1ccc(-c2ccc3c(Cn4ccnc4)cccc3c2)cc1` were 19% and 2%.
As to `COc1ccc2cc(-c3ccc(F)cc3)ccc2c1-c1cccnc1`, the inhibition at 10 µM on CYP3A4 [3] turned out to be 86%; at CYP2C19 [4] it was 28%; against CYP1A2 [5] it was 87%; at CYP2C9 [6] it was 54%. Also, at 2 µM the inhibition in [1] was 7%. The inhibition at 1 µM was 66% against CYP2C9 [7], 40% at CYP1A2 [8], 68% against CYP2C19 [9] and 64% at CYP3A4 [10]. The same compound came in with an inhibition at 0.2 µM in series [2] of 6%.
One may read the IC50 as the concentration that inhibits the measured activity by half. `C[C@]12CC[C@H](O)CC1=CC[C@@H]1[C@@H]2CC[C@]2(C)C(c3cccnc3)=CC[C@@H]12` [ABIRATERONE]: the inhibition at 10 µM against CYP3A4 [3] turned out to be 7%; against CYP2C19 [4], 7%; against CYP1A2 [5], 53%; against CYP2C9 [6] it was 51%. The compound also showed a half-inhibitory concentration (IC50) in series [16] of 72 nM. The inhibition at 1 µM on CYP2C9 [7] was found to be 17%; on CYP1A2 [8], 36%; against CYP2C19 [9], 3%; at CYP3A4 [10] it was 7%.
Take `CC(=O)N1CCN(c2ccc(OCC3COC(Cn4ccnc4)(c4ccc(Cl)cc4Cl)O3)cc2)CC1` (stereo not drawn) [KETOCONAZOLE]: the inhibition at 10 µM at CYP3A4 [3] was 4%; against CYP2C19 [4], 1%; on CYP1A2 [5], 38%; on CYP2C9 [6] it was 75%. For the same compound, the inhibition at 1 µM came to 21% against CYP2C9 [7], 8% against CYP1A2 [8], 24% against CYP2C19 [9] and 1% against CYP3A4 [10].
